From patent US7384983B2, “Inhibitor of monoamine uptake” (Eli Lilly and Company, priority 2001, dated 2008)

Experiments:
uptake of serotonin = assay: Microdialysis Assays of Monoamines: inhibition of serotonin uptake; conditions: tested essentially as described for microdialysis assays
Description: (§1) Microdialysis Assays of Monoamines
(§2) Sprague-Dawley rats (Harlan or Charles River) weighing 270-300 grams are surgically implanted with microdialysis probes under chloral hydrate/pentobarbital anesthesia (170 and 36 mg/kg i.p. in 30% propylene glycol, 14% ethanol) as described by Perry and Fuller. (Perry and Fuller, Effect of fluoxetine on serotonin and dopamine concentration in rat hypothalamus after administration of fluoxetine plus L-5-hydroxytryptophan, Life Sci., 50, 1683-90 (1992)). A David Kopf stereotaxic instrument is used to implant the probe unilaterally in the hypothalamus at coordinates rostral −1.5 mm, lateral −1.3 mm, and ventral −9.0 mm (Paxinos and Watson, 1986). After a 48-hour recovery period, rats are placed in a large plastic bowl with a mounted liquid swivel system (CMA/120 system for freely moving animals, Bioanalytical Systems, West Lafayette, Ind.). Filtered artificial cerebrospinal fluid (CSF) (150 mM NaCl, 3.0 MM KCl, 1.7 mM CaCl2, and 0.9 mM MgCl2) is perfused through the probe at a rate of […]. […]
(§3) The method used to measure monoamines is as described by Perry and Fuller (1992). […] The electrochemical detector (EG&G, Model 400) for the amine column is set at a potential of 400 mV and a sensitivity of 0.2 nA/V. Basal levels are measured for at least 90 minutes prior to drug administration. […]

uptake of norepinephrine = assay: Microdialysis Assays of Monoamines: inhibition of norepinephrine uptake; assay type: in vivo, Sprague-Dawley rats; conditions: tested essentially as described for microdialysis assays
Description: as §1, §2, §3

Ki (uptake of serotonin): 43 nM | Ki (uptake of norepinephrine): 3 nM
SMILES: CNCC[C@@H](Oc1ccc(O)cc1C)c1ccccc1 [R-(−)-N-methyl 3-((2-methyl-4-hydroxyphenyl)oxy)-3-phenyl-1-aminopropane]
